# Data as given in the supplement of paper PMC10331698.
# ± gives the standard deviation of the averaged measurements.
# What was measured:
# Experiment in all cases: level (log10 ratio to DMSO vehicle control); higher = higher biomarker level / cell amount than vehicle control
# [1] = compound: O=C(O)C(F)(OC(F)(F)C(F)(F)C(F)(F)F)C(F)(F)F [Ammonium perfluoro-2-methyl-3-oxahexanoate] (in Water)
# Protocol: (§1)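 BioMAP Diversity Plus panel of 12 human primary cell co-culture systems (3C, 4H, LPS, SAg, BT, BF4T, BE3C, CASM3C, HDF3CGF, KF3CT, MyoF, Mphg). Compounds were added 1 h before stimulation and left for 24 h (MyoF 48 h; BT 72 h for soluble read-outs or 6 d for IgG). Biomarkers were read by ELISA, cytotoxicity by SRB, PBMC viability and proliferation by Alamar Blue. Each well value was divided by the mean of 8 DMSO control wells on the same plate and log10 transformed; duplicate blinded samples were tested at 4 concentrations.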
# [2] = compound: O=C(O)C(F)(OC(F)(F)C(F)(OC(F)(F)C(F)(OC(F)(F)C(F)(F)C(F)(F)F)C(F)(F)F)C(F)(F)F)C(F)(F)F [Perfluoro-(2,5,8-trimethyl-3,6,9-trioxadodecanoic)acid] (in DMSO)
# Protocol: as §1
# [3] = compound: OCC(F)(F)C(F)(F)C(F)(F)C(F)F [1H,1H,5H-Perfluoropentanol] (in DMSO)
# Protocol: as §1
# [4] = compound: O=C(O)CCC(F)(C(F)(F)F)C(F)(F)F [4,4-bis(Trifluoromethyl)-4-fluoropropanoic acid] (in DMSO)
# Protocol: as §1
# [5] = compound: OCC(F)(F)OC(F)(F)C(F)(F)OC(F)(F)C(F)(F)OC(F)(F)CO [1H,1H,11H,11H-Perfluorotetraethylene glycol] (in DMSO)
# Protocol: as §1
# [6] = compound: O=C(O)C(F)(F)OC(F)(F)C(F)(F)OC(F)(F)C(F)(F)OC(F)(F)C(F)(F)C(F)(F)C(F)(F)F [Perfluoro-3,6,9-trioxatridecanoic acid] (in DMSO); conditions: 6700 nM
# Protocol: as §1
# Perfluorononanoic acid = compound: O=C(O)C(F)(F)C(F)(F)C(F)(F)C(F)(F)C(F)(F)C(F)(F)C(F)(F)C(F)(F)F [Perfluorononanoic acid] (in DMSO)
# Protocol: as §1
# [7] = compound: C=C(C)C(=O)OCCC(F)(F)C(F)(F)C(F)(F)C(F)(F)C(F)(F)C(F)(F)C(F)(F)C(F)(F)F [8:2 Fluorotelomer methacrylate] (in DMSO)
# Protocol: as §1
Test System,level (log10) ([1]; 6700 nM),level (log10) ([1]; 20000 nM),level (log10) ([1]; 60000 nM),level (log10) ([2]; 1100 nM),level (log10) ([2]; 3300 nM),level (log10) ([2]; 10000 nM),level (log10) ([3]; 6700 nM),level (log10) ([3]; 20000 nM),level (log10) ([3]; 60000 nM),level (log10) ([4]; 6700 nM),level (log10) ([4]; 20000 nM),level (log10) ([4]; 60000 nM),level (log10) ([5]; 6700 nM),level (log10) ([5]; 20000 nM),level (log10) ([5]; 60000 nM),level (log10) [6],level (log10) (Perfluorononanoic acid; 6700 nM),level (log10) (Perfluorononanoic acid; 20000 nM),level (log10) ([7]; 6700 nM),level (log10) ([7]; 20000 nM)
CASM3C:SRB,-0.007 ± 0.0057,-0.008 ± 0.0014,-0.0105 ± 0.0064,0.0035 ± 0.005,-0.006 ± 0.0071,0.0005 ± 0.0035,0.0025 ± 0.0035,0.0015 ± 0.0021,0.0045 ± 0.00071,-0.007 ± 0.0014,-0.0005 ± 0.0078,-0.0025 ± 0.0035,-0.0025 ± 0.0064,-0.008 ± 0.0057,-0.0275 ± 0.012,0.0025 ± 0.00071,-0.0005 ± 0.0064,0.002,-0.006 ± 0.0028,-0.0015 ± 0.005
HDF3CGF:CCL2/MCP-1,0.011 ± 0.025,0.0285 ± 0.0021,0.019 ± 0.0028,-0.0035 ± 0.016,-0.0365 ± 0.005,-0.01 ± 0.0042,-0.046 ± 0.027,-0.014 ± 0.068,-0.0225 ± 0.047,-0.014 ± 0.016,-0.01 ± 0.017,0.005 ± 0.0042,-0.044 ± 0.031,-0.073 ± 0.027,-0.172 ± 0.067,-0.274 ± 0.013,0.0235 ± 0.074,-0.056 ± 0.055,-0.0095 ± 0.016,-0.012 ± 0.023
CASM3C:HLA-DR,0.0195 ± 0.054,0.01 ± 0.059,0.004 ± 0.0071,0.0045 ± 0.019,-0.004 ± 0.0028,0.0165 ± 0.012,0.016 ± 0.0028,-0.014 ± 0.064,0.035 ± 0.025,-0.035 ± 0.0014,-0.0285 ± 0.012,0.0035 ± 0.012,-0.002 ± 0.0099,-0.0115 ± 0.0021,-0.005 ± 0.0085,-0.0005 ± 0.0078,-0.0105 ± 0.066,-0.02 ± 0.0028,-0.006 ± 0.027,-0.0195 ± 0.046
KF3CT:CD54/ICAM-1,0.022 ± 0.0099,0.029 ± 0.0071,0.017 ± 0.0057,0.004 ± 0.0042,-0.0025 ± 0.0064,0.013 ± 0.013,-0.002 ± 0.0071,-0.003 ± 0.023,0.004,0.0055 ± 0.0078,-0.0085 ± 0.0092,0.01 ± 0.0085,-0.016 ± 0.0085,-0.008 ± 0.02,-0.006 ± 0.035,0.019 ± 0.0042,-0.0235 ± 0.013,-0.0455 ± 0.037,-0.017 ± 0.013,0.004 ± 0.021
KF3CT:MMP-9,-0.008 ± 0.011,0.0415 ± 0.026,0.0695 ± 0.0035,-0.0035 ± 0.00071,-0.022 ± 0.044,-0.0125 ± 0.016,-0.024 ± 0.045,-0.008 ± 0.0071,0.0125 ± 0.04,-0.026 ± 0.025,-0.0195 ± 0.019,-0.008 ± 0.0085,0.0225 ± 0.021,0.062 ± 0.03,0.0725 ± 0.0078,-0.278 ± 0.039,-0.0575 ± 0.053,-0.097 ± 0.034,-0.003 ± 0.023,-0.014 ± 0.018
3C:CD141/Thrombomodulin,-0.0395 ± 0.03,-0.0315 ± 0.011,-0.057 ± 0.0028,-0.0035 ± 0.026,-0.0185 ± 0.029,-0.01 ± 0.035,-0.006 ± 0.011,-0.013 ± 0.013,0.0195 ± 0.011,-0.035 ± 0.082,-0.021 ± 0.062,-0.0435 ± 0.069,-0.0145 ± 0.039,0.005 ± 0.028,0.051 ± 0.021,-0.0155 ± 0.0021,-0.0225 ± 0.00071,-0.0285 ± 0.011,-0.031 ± 0.055,-0.033 ± 0.02
lMphg:CD62E/E-Selectin,0.013 ± 0.0071,0.002 ± 0.0071,0.0245 ± 0.013,0.002 ± 0.0014,-0.03 ± 0.0028,-0.0275 ± 0.026,-0.006 ± 0.017,0.002 ± 0.014,0.02 ± 0.016,-0.02 ± 0.038,-0.0155 ± 0.035,-0.0285 ± 0.06,-0.056 ± 0.037,-0.0635 ± 0.081,-0.072 ± 0.086,-0.025 ± 0.061,0.0125 ± 0.035,0.0365 ± 0.00071,0.0085 ± 0.015,0.02 ± 0.014
HDF3CGF:CXCL10/IP-10,0.002 ± 0.013,-0.0085 ± 0.00071,-0.0025 ± 0.012,0 ± 0.0085,-0.01 ± 0.0085,0.0185 ± 0.026,-0.0255 ± 0.019,0.0095 ± 0.0021,0.005 ± 0.018,-0.0175 ± 0.084,-0.0415 ± 0.088,-0.0395 ± 0.035,-0.0435 ± 0.04,-0.155 ± 0.013,-0.418 ± 0.059,-0.3805 ± 0.00071,-0.019 ± 0.024,-0.061 ± 0.016,-0.029 ± 0.021,-0.0425 ± 0.005
lMphg:SRB,-0.043 ± 0.0014,-0.0435 ± 0.00071,-0.0395 ± 0.0035,-0.005,-0.0115 ± 0.0092,-0.005 ± 0.0042,-0.0065 ± 0.005,-0.0045 ± 0.0064,0.006 ± 0.0014,-0.0025 ± 0.0064,-0.0005 ± 0.0064,0.0065 ± 0.0021,-0.009 ± 0.011,-0.024 ± 0.0042,-0.047 ± 0.0099,-0.014 ± 0.0085,0.008 ± 0.0042,0.0105 ± 0.021,-0.0035 ± 0.0035,-0.0055 ± 0.0064
KF3CT:CXCL9/MIG,-0.007 ± 0.011,0.0025 ± 0.00071,0.0005 ± 0.0021,0.0045 ± 0.012,-0.002 ± 0.0085,0.0045 ± 0.0021,-0.009 ± 0.0085,-0.006 ± 0.017,0.008 ± 0.023,0.01 ± 0.011,0.0005 ± 0.0078,0.006 ± 0.016,-0.006 ± 0.031,-0.001 ± 0.013,-0.013 ± 0.018,-0.0395 ± 0.042,-0.006 ± 0.027,-0.007 ± 0.0042,-0.0035 ± 0.0092,0.004 ± 0.0014
MyoF:SRB,0.0095 ± 0.0035,0.013 ± 0.013,0.0085 ± 0.0035,-0.0065 ± 0.005,0.008 ± 0.018,0.0085 ± 0.015,-0.0025 ± 0.0078,-0.004 ± 0.016,0.002 ± 0.0071,-0.004 ± 0.0028,-0.003 ± 0.0014,0.0025 ± 0.0021,-0.0065 ± 0.00071,-0.0145 ± 0.00071,-0.0445 ± 0.015,-0.0815 ± 0.0064,0.0025 ± 0.0064,-0.0155 ± 0.0021,0.0025 ± 0.0064,-0.0015 ± 0.005
HDF3CGF:CXCL9/MIG,-0.011 ± 0.028,-0.02 ± 0.014,-0.016 ± 0.064,-0.0165 ± 0.005,0.005 ± 0.0057,-0.023 ± 0.02,0.0035 ± 0.0021,0.0025 ± 0.025,-0.0105 ± 0.022,-0.0105 ± 0.039,-0.0215 ± 0.056,-0.0305 ± 0.054,-0.105 ± 0.011,-0.283 ± 0.03,-0.525 ± 0.14,-0.196 ± 0.0035,-0.04 ± 0.016,-0.074 ± 0.02,-0.024 ± 0.0042,-0.0275 ± 0.016
MyoF:bFGF,0.017 ± 0.0099,0.006 ± 0.0014,0.0005 ± 0.0092,-0.014 ± 0.0028,-0.0045 ± 0.0035,0.0075 ± 0.005,-0.02 ± 0.016,0.0115 ± 0.026,0.0135 ± 0.012,0.005 ± 0.025,0.002 ± 0.023,0.0155 ± 0.015,0.0045 ± 0.00071,0.0045 ± 0.0092,0.004 ± 0.011,-0.059 ± 0.03,-0.0025 ± 0.025,0.015 ± 0.014,-0.0105 ± 0.00071,0.011 ± 0.014
